Experimental data published in patent US6491953B1, “Controlled release compositions and method” (Amcol International Corporation, priority 1999, dated 2002).

Tests used:
Assay type in all cases: physicochemical
[1] = Adsorption / entrapment of solid and liquid materials on POLYPORE E 200 microparticles (Example 1); conditions: adsorbed on microparticles of Example 1 (POLYPORE E 200)
From the text: The adsorbent polymer microparticles made by the suspension polymerization technique include at least two polyunsaturated monomers, preferably allyl methacrylate and an ethylene glycol dimethacrylate, and, optionally, monounsaturated monomers. The microparticles are characterized by being open to their interior, due to either particle fracture upon removal of a porogen after polymerization or to subsequent milling. […] In a preferred embodiment, the broken sphere microparticles are characterized by a mean unit diameter from about 1 to about 50 microns, more preferably from about 1 to about 25 microns, most preferably, from about 1 to about 20 microns.
The copolymer powder of Example 1 was mixed with zinc pyrithione (solids having a particle size of 3 to 5 microns slurried in water) in an amount of 12 grams of slurry per one gram of the copolymer, then dried in an oven at 80° C. to evaporate water. […] Zinc pyrithione was supplied by Ruetger Nease Company, as mixture of 48% of zinc pyrithione, 51% water, and 1% zinc chloride, and is used as antidandruff component in hair care products, e.g., antidandruff shampoos.
The copolymer of Example 1 was loaded with a methanol/salicylic acid solution in an amount of 12 grams per gram, and dried in an oven at 80° C. to evaporate the methanol. […] Salicylic acid is an antiseptic and antifungal agent.
Retinol was dissolved in same amount of ether. The solution (5.5 grams) was adsorbed on 1 gram of the adsorbent polymer of Example 1. […] Usually retinol is in the form of sticky crystals, is light sensitive, and is skin irritant. Retinol is used in cosmetic formulations and as a vitamin.

[2] = Adsorption / entrapment of solid and liquid active agents on POLYPORE L 200 microparticles (Example 2); conditions: adsorbed on microparticles of Example 2 (POLYPORE L 200)
Experimental: The copolymer of Example 2 was loaded with a methanol/salicylic acid solution to an amount of 12 grams per gram, and dried in an oven at 80° C. to evaporate methanol. The resulting dry product was a white, fine powder, with […] entrapped salicylic acid, i.e., 2.8 grams per gram.
Retinol was dissolved in an equal weight amount of ether, then 5.5 grams of the solution was adsorbed on 1 gram of the adsorbent polymer of Example 2. Thereafter, ether was evacuated under vacuum, and a free-flowing light yellow powder was obtained. The adsorbed amount of retinol was 2.75 grams per gram, i.e., 73%. Usually, retinol is in form of sticky crystals, is light sensitive, and a skin irritant.
The microparticles of Example 2 (POLYPORE™ L 200) also had various other solid and liquid active agents adsorbed thereto, as shown in Table 2: […]

[3] = Stability (discoloration) of ascorbic acid compositions added to water
Experimental: The stability of the three compositions was tested by adding individual portions of the three compositions to water at 25° C. and at 45° C. A control solution of 1-ascorbic acid in water discolored after four hours at 45° C. and after five days at room temperature. […] A polymer-ascorbic acid solution, without the addition of a release retardant, also discolored during the test. Accordingly, a release retardant protects and stabilizes an active agent adsorbed onto an adsorbent polymer.

Compound	Free-Flowing (g/g) adsorbed [1]	Total (g/g) adsorbed [1]	Free-Flowing (g/g) adsorbed [2]	Total (g/g) adsorbed [2]	time after which solution discolored ([3]; in water at 45° C.)	time after which solution discolored ([3]; in water at room temperature)
Cyclomethicone [Cyclomethicone (DC 244)]	9.6 g/g	12.0 g/g	10.8 g/g	15.0 g/g		
CC(=O)OCc1ccccc1 [Benzyl Acetate]	10.2 g/g	12.3 g/g	9.9 g/g	12.7 g/g		
CCCCCCCCCCCCCC(=O)OC(C)C [Isopropyl Myristate]	8.0 g/g	10.7 g/g	9.5 g/g	11.4 g/g		
OCC(O)CO [Glycerin]	6.0 g/g	8.0 g/g	7.6 g/g	10.0 g/g		
O=C1O[C@H]([C@@H](O)CO)C(O)=C1O [1-ascorbic acid]					four	five
COc1ccc(C(=O)c2ccccc2)c(O)c1 [Benzophenone-3]	9.2 g/g	12.3 g/g	9.1 g/g	12.8 g/g		
CC(=O)Oc1c(C)c(C)c2c(c1C)CCC(C)(CCC[C@H](C)CCC[C@H](C)CCCC(C)C)O2 (stereo partly shown) [Vitamin E Acetate]	5.6 g/g	7.2 g/g	7.0 g/g	9.2 g/g		
Oc1cc(Cl)ccc1Oc1ccc(Cl)cc1Cl [IRGASAN DP 300, 5-chloro-2-(2,4-dichlorophenoxy)phenol]		10.0 g/g		10.7 g/g		
